{"source": "the supplement of paper PMC10307832", "experiment_in_all_cases": "relative viability (nuclei count vs DMSO), 5 days (fraction); higher = more cells survive", "key": {"NCI-H650": {"test_system": "NCI-H650", "outline": "(§1)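 Nuclei were stained with Hoechst during a one-step fixation (final 0.05% Triton X-100, 1% formaldehyde, 1 ug/ml Hoechst) carried out 5 days after dosing, then counted on 4× images. The cells, lung cancer lines in 1536-well plates, had been dosed by pin tool the day after seeding with one drug alone or a fixed anchor-drug dose plus five library-drug doses (not always all listed) in √10 steps. Relative viability is the nuclei count in treated wells divided by that in vehicle wells, and each value is the median of duplicate plates.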"}, "NCI-H838": {"test_system": "NCI-H838", "outline": "as §1"}, "ChaGo-K-1": {"test_system": "ChaGo-K-1", "outline": "as §1"}, "NCI-H1975": {"test_system": "NCI-H1975", "outline": "as §1"}, "PC-3 [JPC-3]": {"test_system": "PC-3 [JPC-3]", "outline": "as §1"}, "NCI-H1355": {"test_system": "NCI-H1355", "outline": "as §1"}, "HCC-78": {"test_system": "HCC-78", "outline": "as §1"}, "NCI-H358": {"test_system": "NCI-H358", "outline": "as §1"}, "BEN": {"test_system": "BEN", "outline": "as §1"}, "LK-2": {"test_system": "LK-2", "outline": "as §1"}}}
{"smiles": "Nc1ccn([C@@H]2O[C@H](CO)[C@@H](O)[C@@H]2O)c(=O)n1", "note": "[Cytarabine] + NC(=O)Nc1cc(-c2cccc(F)c2)sc1C(=O)N[C@H]1CCCNC1 [AZD7762] (partner 0.2 µM)", "values": [{"measurement": "relative viability", "setting": "NCI-H650; first compound 0.005 µM", "value": 0.843}, {"measurement": "relative viability", "setting": "NCI-H650; first compound 0.01581 µM", "value": 0.26}, {"measurement": "relative viability", "setting": "NCI-H650; first compound 0.05 µM", "value": 0.19}, {"measurement": "relative viability", "setting": "NCI-H650; first compound 0.1581 µM", "value": 0.146}, {"measurement": "relative viability", "setting": "NCI-H650; first compound 0.5 µM", "value": 0.162}, {"measurement": "relative viability", "setting": "NCI-H838; first compound 0.005 µM", "value": 0.738}, {"measurement": "relative viability", "setting": "NCI-H838; first compound 0.01581 µM", "value": 0.699}, {"measurement": "relative viability", "setting": "NCI-H838; first compound 0.05 µM", "value": 0.665}, {"measurement": "relative viability", "setting": "NCI-H838; first compound 0.1581 µM", "value": 0.652}, {"measurement": "relative viability", "setting": "NCI-H838; first compound 0.5 µM", "value": 0.631}, {"measurement": "relative viability", "setting": "ChaGo-K-1; first compound 0.005 µM", "value": 0.877}, {"measurement": "relative viability", "setting": "ChaGo-K-1; first compound 0.01581 µM", "value": 0.643}, {"measurement": "relative viability", "setting": "ChaGo-K-1; first compound 0.05 µM", "value": 0.439}, {"measurement": "relative viability", "setting": "ChaGo-K-1; first compound 0.1581 µM", "value": 0.249}, {"measurement": "relative viability", "setting": "ChaGo-K-1; first compound 0.5 µM", "value": 0.199}, {"measurement": "relative viability", "setting": "NCI-H1975; first compound 0.005 µM", "value": 0.679}, {"measurement": "relative viability", "setting": "NCI-H1975; first compound 0.01581 µM", "value": 0.581}, {"measurement": "relative viability", "setting": "NCI-H1975; first compound 0.05 µM", "value": 0.388}, {"measurement": "relative viability", "setting": "NCI-H1975; first compound 0.1581 µM", "value": 0.321}, {"measurement": "relative viability", "setting": "NCI-H1975; first compound 0.5 µM", "value": 0.234}, {"measurement": "relative viability", "setting": "PC-3 [JPC-3]; first compound 0.005 µM", "value": 0.746}, {"measurement": "relative viability", "setting": "PC-3 [JPC-3]; first compound 0.01581 µM", "value": 0.809}, {"measurement": "relative viability", "setting": "PC-3 [JPC-3]; first compound 0.05 µM", "value": 0.676}, {"measurement": "relative viability", "setting": "PC-3 [JPC-3]; first compound 0.1581 µM", "value": 0.395}, {"measurement": "relative viability", "setting": "PC-3 [JPC-3]; first compound 0.5 µM", "value": 0.425}, {"measurement": "relative viability", "setting": "NCI-H1355; first compound 0.005 µM", "value": 0.455}, {"measurement": "relative viability", "setting": "NCI-H1355; first compound 0.01581 µM", "value": 0.455}, {"measurement": "relative viability", "setting": "NCI-H1355; first compound 0.05 µM", "value": 0.356}, {"measurement": "relative viability", "setting": "NCI-H1355; first compound 0.1581 µM", "value": 0.181}, {"measurement": "relative viability", "setting": "NCI-H1355; first compound 0.5 µM", "value": 0.188}, {"measurement": "relative viability", "setting": "HCC-78; first compound 0.005 µM", "value": 0.614}, {"measurement": "relative viability", "setting": "HCC-78; first compound 0.01581 µM", "value": 0.779}, {"measurement": "relative viability", "setting": "HCC-78; first compound 0.05 µM", "value": 0.486}, {"measurement": "relative viability", "setting": "HCC-78; first compound 0.1581 µM", "value": 0.374}, {"measurement": "relative viability", "setting": "HCC-78; first compound 0.5 µM", "value": 0.314}, {"measurement": "relative viability", "setting": "NCI-H358; first compound 0.005 µM", "value": 0.419}, {"measurement": "relative viability", "setting": "NCI-H358; first compound 0.01581 µM", "value": 0.229}, {"measurement": "relative viability", "setting": "NCI-H358; first compound 0.05 µM", "value": 0.208}, {"measurement": "relative viability", "setting": "NCI-H358; first compound 0.1581 µM", "value": 0.221}, {"measurement": "relative viability", "setting": "NCI-H358; first compound 0.5 µM", "value": 0.182}, {"measurement": "relative viability", "setting": "BEN; first compound 0.005 µM", "value": 0.588}, {"measurement": "relative viability", "setting": "BEN; first compound 0.01581 µM", "value": 0.425}, {"measurement": "relative viability", "setting": "BEN; first compound 0.05 µM", "value": 0.296}, {"measurement": "relative viability", "setting": "BEN; first compound 0.1581 µM", "value": 0.259}, {"measurement": "relative viability", "setting": "BEN; first compound 0.5 µM", "value": 0.241}, {"measurement": "relative viability", "setting": "LK-2; first compound 0.005 µM", "value": 0.3}, {"measurement": "relative viability", "setting": "LK-2; first compound 0.01581 µM", "value": 0.13}, {"measurement": "relative viability", "setting": "LK-2; first compound 0.05 µM", "value": 0.0997}, {"measurement": "relative viability", "setting": "LK-2; first compound 0.1581 µM", "value": 0.0979}, {"measurement": "relative viability", "setting": "LK-2; first compound 0.5 µM", "value": 0.12}]}
